Reference: ChEMBL document CHEMBL5346906, “Discovery of novel tranylcypromine-based derivatives as LSD1 inhibitors for gastric cancer treatment” (Eur J Med Chem, 2023)
Active and inactive are the calls of the source. The calls are words filed in the database; no cut-off is given here.

Tests used:
MGC-803 [1] = test: Antiproliferative activity against human MGC-803 cells assessed as reduction in stemness of cells by measuring tumor ball diameter at 0 to 8 uM after 48 hrs measured after 5 days using 3D-spheroid assay; assay type: functional, cell-based; conditions: dose 0-8 µM
MGC-803 [2] = test: Induction of apoptosis in human MGC-803 cells assessed as morphological change in cell nucleus incubated at 8 to 24 micromol/L for 48 hrs measured by Giemsa staining based microscopic analysis; assay type: functional; conditions: dose 8-24 µmol/L
MGC-803 [3] = test: Inhibition of cell migration in human MGC-803 cells assessed as scratch width decrease treated at 2 to 6 micromol/L for 48 hrs measured by transwell assay based crystal violet staining analysis; assay type: functional; conditions: dose 2-6 µmol/L
MGC-803 [4] = test: Induction of apoptosis in human MGC-803 cells assessed as decrease in capase3 expression at 8 to 24 micromol/L; assay type: functional, cell-based; conditions: dose 8-24 µmol/L
KYSE-450 = test: Antiproliferative activity against human KYSE-450 cells incubated for 48 hrs measured by MTT assay; assay type: functional, cell-based; conditions: KYSE-450, 48 h
[5] = target: T1, Lysine-specific histone demethylase 1A (Homo sapiens, UniProt O60341); test: Inhibition of LSD1 in human MGC-803 cells assessed as increase in methylation of H3K4 at 24 micromol/L; assay type: cell-based; conditions: dose 24.0 µmol/L
MGC-803 [6] = test: Antiproliferative activity against human MGC-803 cells assessed as reduction in stemness of cells by measuring tumor ball diameter at 0 to 8 uM after 48 hrs using 3D-spheroid assay; assay type: functional, cell-based; conditions: dose 0-8 µM
MGC-803 [7] = test: Induction of mitochondrial membrane potential depolarization in human MGC-803 assessed as early apoptotic cells measured at 8 micromol/L for 20 mins by JC-1 staining based flow cytometric analysis (reference value: 4.52%); assay type: functional; conditions: dose 8 µmol/L, at 8 µM
MGC-803 [8] = test: Induction of apoptosis in human MGC-803 cells assessed as morphological change of cells incubated at 8 to 24 micromol/L for 48 hrs measured by bright field microscopic analysis; assay type: functional, cell-based; conditions: dose 8-24 µmol/L
MGC-803 [9] = test: Induction of apoptosis in human MGC-803 cells assessed as late apoptotic cells at 16 micromol/L for 48 hrs by annexinV-FITC/PI staining based flow cytometric analysis (reference value: 1.32%); assay type: functional; conditions: dose 16 µmol/L, at 16 µM
[10] = target: T1, Lysine-specific histone demethylase 1A; test: Binding affinity to LSD1 in human MGC-803 cells assessed as thermal solubility measured at 100 uM preincubated for 30 mins and incubated at 42 to 60 degreeC for 3 mins followed by cooled for 180 secs cycle repeated 3 times by CETSA based Western blotting analysis; assay type: cell-based; conditions: time 48.0 min
MGC-803 [11] = test: Induction of mitochondrial membrane potential depolarization in human MGC-803 assessed as early apoptotic cells measured at 16 micromol/L for 20 mins by JC-1 staining based flow cytometric analysis (reference value: 4.52%); assay type: functional; conditions: dose 16 µmol/L, at 16 µM
MGC-803 [12] = test: Antiproliferative activity against human MGC-803 cells assessed as reduction in stemness of cells by measuring tumor ball diameter at 0 to 8 uM after 48 hrs measured after 10 days using 3D-spheroid assay; assay type: functional, cell-based; conditions: dose 0-8 µM
MGC-803 [13] = test: Induction of apoptosis in human MGC-803 cells assessed as late apoptotic cells at 8 micromol/L for 48 hrs by annexinV-FITC/PI staining based flow cytometric analysis (reference value: 1.32%); assay type: functional; conditions: dose 8 µmol/L, at 8 µM
MGC-803 [14] = test: Inhibition of cell migration in human MGC-803 cells assessed as scratch width decrease treated at 2 to 6 micromol/L for 24 to 48 hrs measured by wound healing assay; assay type: functional, cell-based; conditions: dose 2-6 µmol/L, time 24-48 hrs
HCT-116 = test: Antiproliferative activity against human HCT-116 cells incubated for 48 hrs measured by MTT assay; assay type: functional, cell-based; conditions: HCT-116, 48 h
MGC-803 [15] = test: Induction of cell differentiation in human MGC-803 cells assessed as increase in CD86 level at 8 micromol/L incubated for 48 hrs by flow cytometric analysis (reference value: 60%); assay type: functional; conditions: dose 8 µmol/L, at 8 µM
[16] = target: T1, Lysine-specific histone demethylase 1A; test: Binding affinity to LSD1 in human MGC-803 cells assessed as thermal stability measured at 100 uM preincubated for 30 mins and incubated at 42 to 60 degreeC for 3 mins followed by cooled for 180 secs cycle repeated 3 times by CETSA based Western blotting analysis; assay type: cell-based; conditions: time 48.0 min
MGC-803 [17] = test: Induction of apoptosis in human MGC-803 cells assessed as decrease in anti-apoptotic Bcl-2 expression at 8 to 24 micromol/L; assay type: functional, cell-based; conditions: dose 8-24 µmol/L
MGC-803 [18] = test: Induction of mitochondrial membrane potential depolarization in human MGC-803 assessed as viable cells measured at 16 micromol/L for 20 mins by JC-1 staining based flow cytometric analysis (reference value: 0.40%); assay type: functional; conditions: MGC-803, 20 min, dose 16 µmol/L, read-out: Activity
MGC-803 [19] = test: Induction of mitochondrial membrane potential depolarization in human MGC-803 assessed as late apoptotic cells measured at 24 micromol/L for 20 mins by JC-1 staining based flow cytometric analysis (reference value: 94.98%); assay type: functional; conditions: dose 24 µmol/L, at 24 µM
[20] = target: T1, Lysine-specific histone demethylase 1A; test: Inhibition of LSD1 in human MGC-803 cells assessed as increase in methylation of H3K9 at 24 micromol/L; assay type: cell-based; conditions: dose 24.0 µmol/L
MGC-803 [21] = test: Induction of apoptosis in human MGC-803 cells assessed as necrotic cells at 8 micromol/L for 48 hrs by annexinV-FITC/PI staining based flow cytometric analysis (reference value: 0.22%); assay type: functional; conditions: dose 8 µmol/L, at 8 µM
[22] = target: T2, Amine oxidase [flavin-containing] A (Homo sapiens, UniProt P21397); test: Inhibition of MAO-A (unknown origin) measured by MAO-GloTM method
T2 sequence (P21397 whole entry): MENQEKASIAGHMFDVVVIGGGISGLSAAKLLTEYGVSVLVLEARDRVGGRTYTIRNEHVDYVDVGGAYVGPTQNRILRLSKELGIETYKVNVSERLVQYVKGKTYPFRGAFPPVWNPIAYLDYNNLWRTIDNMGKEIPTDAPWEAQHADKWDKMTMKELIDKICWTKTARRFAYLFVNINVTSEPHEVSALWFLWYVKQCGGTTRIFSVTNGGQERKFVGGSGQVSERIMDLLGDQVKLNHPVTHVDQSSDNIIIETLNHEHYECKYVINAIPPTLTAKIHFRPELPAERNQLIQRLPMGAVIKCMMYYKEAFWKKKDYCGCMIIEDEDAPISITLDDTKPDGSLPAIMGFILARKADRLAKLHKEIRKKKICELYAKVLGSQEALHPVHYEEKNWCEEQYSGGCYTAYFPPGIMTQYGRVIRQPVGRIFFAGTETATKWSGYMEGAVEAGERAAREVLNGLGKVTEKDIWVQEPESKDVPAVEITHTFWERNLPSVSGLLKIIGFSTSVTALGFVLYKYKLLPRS

MGC-803 [23] = test: Induction of mitochondrial membrane potential depolarization in human MGC-803 assessed as necrotic cells measured at 8 micromol/L for 20 mins by JC-1 staining based flow cytometric analysis (reference value: 0.00%); assay type: functional; conditions: dose 8 µmol/L, at 8 µM
MGC-803 [24] = test: Induction of mitochondrial membrane potential depolarization in human MGC-803 assessed as necrotic cells measured at 24 micromol/L for 20 mins by JC-1 staining based flow cytometric analysis (reference value: 0.00%); assay type: functional; conditions: dose 24 µmol/L, at 24 µM
MGC-803 [25] = test: Induction of cell differentiation in human MGC-803 cells assessed as increase in CD86 level at 16 micromol/L incubated for 48 hrs by flow cytometric analysis (reference value: 60%); assay type: functional; conditions: dose 16 µmol/L, at 16 µM

## O=C(c1cccc(CN[C@@H]2C[C@H]2c2ccc(F)c(F)c2)c1)N1CCN(c2ccc(Cl)c(Cl)c2)CC1
MGC-803 [1]
  Activity: inactive
MGC-803 [2]
  Activity: Active
MGC-803 [3]
  inhibition: Active
MGC-803 [4]
  Activity: Active
KYSE-450
  IC50: 22.8 µM
[5]
  inhibition: Active
MGC-803 [6]
  Activity: Active
MGC-803 [7]
  Activity: 6.3%
MGC-803 [8]
  Activity: Active
MGC-803 [9]
  Activity: 10.43%
[10]
  Activity: Active
MGC-803 [11]
  Activity: 17.64%
MGC-803 [12]
  Activity: Active
MGC-803 [13]
  Activity: 2.76%
MGC-803 [14]
  inhibition: Active
HCT-116
  IC50: 16.3 µM
MGC-803 [15]
  Activity: 64.13%
[16]
  Activity: Active
MGC-803 [17]
  Activity: Active
MGC-803 [18]
  viability at 16 µM: 1.34%
MGC-803 [19]
  Activity: 69.38%
[20]
  inhibition: Active
MGC-803 [21]
  Activity: 0.32%
[22]
  IC50: 1.23 µM
MGC-803 [23]
  Activity: 0%
MGC-803 [24]
  Activity: 0.12%
MGC-803 [25]
  Activity: 64.32%
